Measured values from patent US6310090A, “Process and product for enhancing immune response in companion animals using a combination of antioxidants” (priority 2000, dated 2001).

Assays:
[1] = system: plasma lipid peroxidation (malondialdehyde); experiment: plasma lipid peroxidation (TBARS) assay, lutein supplementation; assay type: in vivo, dog (Beagle)
Description: Plasma lipid peroxidation activity was determined by measuring malondialdehyde (MDA) production. The standard used was 1,1,3,3-tetramethoxypropane JMP) (Sigma Chem. Co., St. Louis, Mo.). Duplicate 500 μL plasma samples were pipetted into 15 ml, glass tubes and 3 mL of 10 g/L phosphoric acid and 1 ml of 6 g/L TBA solution were added. The mixture was boiled in a water bath for 45 minutes. Tubes were allowed to cool and the TBA-MDA complex was extracted with 4 ml of n-butanol. The butanol layer was separated by centrifugation at 1,000×g for 10 minutes and absorbance was measured on at 532 nm (Beckman, Fullerton, Calif.). The TBARS activity was expressed in nmole MDA/L plasma.

mouse splenocytes = details: dietary lutein; cited from earlier work
[2] = system: PHA (nonspecific antigen); experiment: delayed type hypersensitivity response (skin induration) to PHA, lutein supplementation; assay type: in vivo, dog (Beagle)
Description: (§1) Skin induration response was assessed in all dogs on weeks 0, 6, and 12. Dogs were injected intradermally in the flank area with saline (8.5 g/L; control), an attenuated polyvalent vaccine containing canine distemper virus, canine adenovirus type-2, canine parainfluenza virus and parvovirus (Vanguard 5, Smithkline Beacham, West Chester, Pa.; specific antigen), and PHA (0.5 g/L; nonspecific antigen). The doses of vaccine and PHA used were previously determined to provide optimal skin response in Beagle dogs of similar age. The injection site was clipped and wiped with 70% ethyl alcohol. The injection volume was 100 μL. Skin induration was measured at 0, 24, 48 and 72 h post-injection with the aid of a pressure-sensitive digital micrometer (Mitsutoyo, Tokyo, Japan) and response was expressed as a percentage of skin thickness measured at 0 h.

IgG = IgG by single radial immunodiffusion, lutein supplementation; assay type: in vivo, dog (canine)
Description: (§2) Serum collected on weeks 0, 2, 4, 8 and 12 were analyzed for IgG and IgM concentrations by single radial immunodiffusion (SRID). In addition, all dogs were vaccinated with the polyvalent vaccine (Vanguard 5, Smithkline Beacham, West Chester, Pa.) on week 13 and again on week 15 to study the possible anamnestic effect of dietary lutein. Blood was collected weekly from week 13 through week 17. Goat antiserum to canine IgG (10%, whole molecule) or IgM (7.5%, μ chain specific) (ICN, Aurora, Ohio) was mixed with melted agarose (10 g/L in PBS; Sigma Chem. Co., St. Louis, Mo.) and the mixture solidified in SRID plates. Duplicate 5 μL volumes of serum or IgG (0, 2.88, 5.75, 11.5 and 23.0 mg/ml) or IgM (0, 0.25, 0.5, 1.0 and 2.0 mg/ml) standard were loaded into the wells. After incubating for 24 hours at room temperature in a humidified chamber, ring diameters were measured using a SRID reader (Transidyne General Corp., Ann Arbor, Minn.).

IgM = IgM by single radial immunodiffusion, lutein supplementation; assay type: in vivo, dog (canine); details: after revaccination on week 15
Description: as §2

CD4+ T-helper cells = experiment: lymphocyte subsets by flow cytometry, lutein supplementation; assay type: cell-based, dog (Beagle); details: 5 and 10 mg lutein, week 12
Description: (§3) Fifty six female Beagle dogs (17 to 18 months old; average body weight 11.4±0.4 kg) were randomly assigned to be supplemented daily with 0, 5, 10 or 20 mg lutein for 17 weeks. The lutein contained 76.66% lutein and 5.23% zeaxanthin. The lutein supplement was resuspended in soybean oil to the appropriate concentration and 1 mL administered perorally at 0800 h daily. Food (200 g/dog/d) was offered immediately after the lutein supplementation. […] All dogs were housed in 2×2 m pens (2 dogs/pen) in a temperature (20 to 22° C.) and light (14 h light) controlled facility. Body weight was recorded at weeks 0, 6, and 12.
(§4) Blood was collected by jugular venipuncture into heparinized evacuated tubes on weeks 0, 2, 4, 8 and 12 and aliquots used for HPLC analysis and for assessing immune responses.
(§5) Blood leukocytes were separated using Histopaque-1119 (Sigma, St. Louis, Mo.). Cells were washed three times with phosphate-buffered saline (PBS, pH 7.4) and contaminating erythrocytes were lysed in NH4 CI (8.4 g/L). Lymphocyte subsets were determined by flow cytometry (FACScan, Becton Dickinson, San Jose, Calif.). […]
(§6) Appropriate negative controls were included to correct for background fluorescence. Data were expressed as the percentage of positive-staining cells corrected for cells stained nonspecifically with the secondary antibody.

IL-2 = IL-2 production by PHA-stimulated PBMC in whole blood cultures, lutein supplementation; assay type: cell-based, dog (canine)
Description: Whole blood was diluted 1:2 with RPMI-1640 supplemented with Hepes and antibiotics (described earlier) and 400 μL of diluted blood were pipetted into 48-well plates (Costar, Cambridge, Mass.). Cells were stimulated with PHA (400 μL of a 5 μg/mL solution) for 48 hours at […] in a 5% CO2 atmosphere. The plates were centrifuged at 200×g for 10 minutes and the supernatant was frozen at -80° C. The IL-2 content of the culture supernatant was determined in triplicate by ELISA (Intergen, Purchase, N.Y.). The polyclonal anti-human IL-2 cross-reacted with canine IL-2 and recombinant human IL-2 was used as the standard.

CD5+ total T cells = experiment: lymphocyte subsets by flow cytometry, lutein supplementation; assay type: cell-based, dog (Beagle); details: weeks 4 and 8, dogs fed lutein
Description: as §3, §4, §5, §6

CD21+ B cells = experiment: as above; assay type: cell-based, dog (Beagle); details: dietary lutein
Description: as §3, §4, §5, §6

immune system = experiment: summary of the results from each of the studies (Table 1); assay type: in vivo, dog
[3] = system: peripheral blood mononuclear cells (PBMC); experiment: mitogen-induced PBMC proliferation, lutein supplementation; assay type: cell-based, dog (Beagle)
Description: Blood collected on weeks 0, 2, 4, 8 and 12 were used to assess mitogen-induced lymphocyte proliferation by peripheral blood mononuclear cells (PBMC). Whole blood culture was used in order to mimic in vivo conditions. Mitogens used were phytohemagglutinin (PHA), concanavalin A (Con A) and pokeweed mitogen (PWM). Whole blood was thoroughly mixed and then diluted 1:12 with RPMI-1640 containing 25 mM of Hepes, penicillin (100 U/mL) and streptomycin (100 μg/mL) (Sigma, St. Louis, Mo.). […] Triplicate 150 μL volumes were pipetted into 96-well round bottom plates and 50 μl of the appropriate mitogens added. The final concentrations of the mitogens in culture were 2 and 10 μg/mL for PHA, 1 and 5 μg/mL for Con A and 0.5 and 2.5 μg/mL for PWM. The two mitogen concentrations gave maximum (the higher mitogen concentration) and suboptimal (lower mitogen concentration) proliferative responses in preliminary studies using blood from similar animals. The mixture was incubated for 72 h at 37° C. in a humidified incubator under a 5% CO2 atmosphere. Four hours prior to the termination of the incubation period, 20 μL of [^3 H]-thymidine (1 [μCi/well) were added. Cells were harvested onto fiberglass filters and radioactivity was counted by liquid scintillation. Proliferation response of PBMC was expressed as stimulation index (cpm of stimulated cultures/cpm of unstimulated cultures).

[4] = system: canine thyroid adenocarcinoma cells
Description: Fifty six female Beagle dogs (17 to 18 months old; average body weight 11.4±0.4 kg) were randomly assigned to be supplemented daily with 0, 5, 10 or 20 mg lutein for 17 weeks. The lutein contained 76.66% lutein and 5.23% zeaxanthin. The lutein supplement was resuspended in soybean oil to the appropriate concentration and 1 mL administered perorally at 0800 h daily. Food (200 g/dog/d) was offered immediately after the lutein supplementation. The basal diet met or exceeded the requirements for all essential nutrients (NRC 1985). All dogs were housed in 2×2 m pens (2 dogs/pen) in a temperature (20 to 22° C.) and light (14 h light) controlled facility. Body weight was recorded at weeks 0, 6, and 12.
as §4
Canine thyroid adenocarcinoma cells were used as target cells in assessing NK cell cytotoxic activity. […] Target cells were cultured in a T75 flask with 20 mL minimum essential medium (MEM; Sigma Chem. Co., St. Louis, Mo.) supplemented with 10% fetal calf serum (FC S), 100 U/mL of penicillin and 100 μg/mL of streptomycin. […] Optical density was measured at 570 nm using a microplate reader. The percentage of NK cell-specific lysis was calculated as follows: […]

[5] = system: CD8+ T-cytotoxic/suppressor cells; details: week 12
Description: as §3, §4, §5, §6

[6] = system: polyvalent vaccine (specific antigen); experiment: delayed type hypersensitivity response to vaccine / vaccine recognition, lutein supplementation; assay type: in vivo, dog (Beagle)
Description: as §1

[7] = system: MHC class II expressing lymphocytes; experiment: lymphocyte subsets by flow cytometry, lutein supplementation; assay type: cell-based, dog (Beagle); details: 20 mg lutein, week 8 and 12
Description: as §3, §4, §5, §6

[8] = averaged across all treatments and all periods

Q: Which “plasma TBARS activity” value ([1]; averaged across all treatments and periods) does the source give for `CC1=C[C@H](O)CC(C)(C)[C@H]1/C=C/C(C)=C/C=C/C(C)=C/C=C/C=C(C)/C=C/C=C(C)/C=C/C1=C(C)C[C@@H](O)CC1(C)C` [lutein] here?
A: 95.8±0.1 nmol MDA/L

Q: And the “effect on plasma TBARS activity” value ([1]; lutein supplementation)?
A: did not significantly affect

Q: And the plasma retinol concentration [8]?
A: 3.63 ± 0.14 µmol/L

Q: What about the “plasma α-tocopherol concentration” value [8] of the same compound?
A: 37 ± 2 µmol/L

Q: And the “plasma lutein+zeaxanthin vs unsupplemented animals” value (dog, in vivo)?
A: significantly higher

Q: And the “influence on plasma retinol and α-tocopherol” value (lutein supplementation)?
A: did not influence

Q: What about the “lymphocyte proliferation in mouse splenocytes” value (mouse splenocytes) of the same compound?
A: enhance lymphocyte proliferation

Q: What about the “DTH response to PHA, treatment difference” value ([2]; week 6, 48 and 72 h) of the same compound?
A: no significant treatment difference

Q: What about the “DTH response to PHA” value ([2]; week 6, 24 h post-injection) of the same compound?
A: dose-related DTH response

Q: And the “DTH response to PHA vs unsupplemented dogs” value ([2]; week 12, 20 mg lutein)?
A: significantly higher

Q: And the “DTH response to PHA” value ([2]; week 12, 24, 48 and 72 h)?
A: general dose-dependent increase

Q: What about the “plasma IgG” value (IgG; 5 mg lutein, week 16, after revaccination on week 15, P<0.05) of the same compound?
A: higher

Q: What about the “plasma IgG” value (IgG; 20 mg lutein, week 17, after revaccination on week 15) of the same compound?
A: higher

Q: And the “concentration of plasma IgM” value (IgM)?
A: not changed

Q: What about the “% CD4+ cells” value (CD4+ T-helper cells) of the same compound?
A: higher

Q: What about the “concentrations of IL-2 in culture medium” value (IL-2; averaged throughout the study, all treatments) of the same compound?
A: 15.7 ± 0.4 ng/mL

Q: And the “production of IL-2 by PHA-stimulated PBMC” value (IL-2; throughout the experimental period)?
A: did not differ significantly

Q: And the “percentages of CD5+ cells vs unsupplemented controls” value (CD5+ total T cells)?
A: generally had higher percentages

Q: What about the “CD21+ B cell population” value (CD21+ B cells) of the same compound?
A: did not significantly influence

Q: What about the “Optimize vaccine recognition by the dog” value (immune system; Table 1) of the same compound?
A: .check mark.

Q: What about the “Optimize immune cell activity (B-cells)” value (immune system; Table 1, Lutein column) of the same compound?
A: .check mark.

Q: What about the “PWM-stimulated PBMC proliferative response” value ([3]; 10 mg lutein, week 8) of the same compound?
A: higher proliferative response

Q: And the “Con A-stimulated PBMC proliferation” value ([3]; 10 mg lutein, weeks 8 and 12, 5 μg/mL Con A)?
A: higher PBMC proliferation

Q: What about the “PWM-stimulated PBMC proliferation vs unsupplemented controls” value ([3]; 20 mg lutein, week 8 and 12, both concentrations of PWM) of the same compound?
A: significantly higher PBMC proliferation

Q: What about the “PHA-stimulated PBMC proliferative response vs unsupplemented dogs” value ([3]; 20 mg lutein, weeks 8 (10 pg/mL PHA) and 12 (2 and 10 μg/mL PHA), P<0.01) of the same compound?
A: enhanced

Q: What about the “Con A-stimulated PBMC proliferation” value ([3]; 20 mg lutein, weeks 8 and 12, both concentrations of Con A) of the same compound?
A: higher PBMC proliferation

Q: What about the “PHA-stimulated PBMC proliferation” value ([3]; 5 and 10 mg lutein, week 8, 10 μg/ml PHA) of the same compound?
A: higher PBMC proliferation

Q: And the “spontaneous proliferation by unstimulated PBMC” value ([3]; no mitogen)?
A: did not significantly influence

Q: And the “PHA-stimulated PBMC response” value ([3]; weeks 0 and 4)?
A: no significant effect

Q: What about the “PWM-stimulated PBMC proliferation, treatment difference” value ([3]; weeks 0 and 4) of the same compound?
A: no significant treatment difference

Q: What about the “NK cell cytotoxic activity” value [4] of the same compound?
A: did not significantly influence

Q: What about the “specific lysis of target cells by PBMC” value ([4]; averaged across all treatments and sampling periods, E:T 10:1) of the same compound?
A: 49.1±1.1%

Q: And the “CD8+ population” value [5]?
A: not influenced by the diet

Q: And the “improvement of vaccine recognition” value ([6]; FIG. 2, addition of lutein to the diet)?
A: ≤ 32%

Q: And the “DTH response to vaccine” value ([6]; week 6, 48 and 72 h post-injection)?
A: dose-related

Q: And the “DTH response to vaccine” value ([6]; week 6, 24 h)?
A: not significant

Q: What about the “DTH response to vaccine” value ([6]; week 12) of the same compound?
A: no significant dietary effect

Q: What about the “% MHC class II cell populations vs unsupplemented dogs” value [7] of the same compound?
A: elevated
